Like-named read-outs stand apart in the source and are kept apart here.
What was measured:
[1] = Accelerating rotarod test, ataxia (motor coordination); type: in vivo, mice; conditions: mouse, in vivo, ip; NMR female mice, accelerating rotarod
Description: (§1) NMR female mice (18-28 g) housed 5 per cage were used for the maximal electroshock (MES) and motor impairment tests. All animals were kept with water and food ad libitum under a 12 hour light-dark cycle (light on at 6 a.m.) and at a controlled temperature (20±0.5C). All experiments were performed between 10 a.m. and 5 p.m. Tested agents were injected 30 min. i.p. before the induction of convulsions if not stated otherwise (see below). All compounds were dissolved in 0.9% saline.
(§2) The MES test was performed together with tests for myorelaxant action (traction reflex) and motor coordination (rotarod). For the traction reflex test mice were placed with their forepaws on a horizontal rod and were required to place all 4 paws on the wire within 10 seconds. To test ataxia (motor coordination) mice were placed on an accelerating rotarod and were required to remain on the rod for 1 minute. […] These tests were followed by MES (100 Hz, 0.5 second shock duration, 50 mA shock intensity, 0.9 ms impulse duration, Ugo Basile) applied through corneal electrodes. The presence of tonic convulsions was scored (tonic extension of hind paws with minimum angle to the body of 90). The aim was to obtain ED50s for all parameters scored (anticonvulsive activity and motor side effects) with use of the Litchfield Wilcoxon test for quantal dose responses. Division of the ED50 for side effects (ataxia or myorelaxation) by the ED50 for antagonism of electroshock convulsions was used as a therapeutic index (TI).
(§3) 4-7 doses of antagonists were tested in each of the in vivo tests (5-8 animals per dose) to allow calculation of graded ED50s according to probit analysis (Litchfield and Wilcoxon) with correction for 0% to 100% effects. ED50s are presented with 95% confidence limits (Cl). Pearson product moment correlation analysis (Sigma Stat, Jandel Scientific) was used to compare in vitro potencies and in vivo anticonvulsant activity.

[2] = system: maximal electroshock (MES) tonic convulsions; test: Maximal electroshock (MES) test, anticonvulsive activity; type: in vivo, mice; conditions: for ED50: Mus musculus, ip, read-out: MES ED50
Description: as §1, §2, §3

[3] = target: NMDA receptor ([3H]-(+)-MK-801 site) (Rattus norvegicus, UniProt P35439); test: [3H]-(+)-MK-801 receptor binding, rat cortex membranes
[4] = Traction reflex test, myorelaxant action; type: in vivo, mice; conditions: mouse, in vivo, ip; NMR female mice, i.p., traction reflex; read-out: Myorelaxation ED50
Description: as §1, §2, §3

ataxia (rotarod) = test: Accelerating rotarod test, ataxia (motor coordination); type: in vivo, mice; conditions: for Therapeutic index (ataxia ED50 / MES ED50): ED50 ataxia divided by ED50 MES
Description: as §1, §2, §3

[5] = system: myorelaxation (traction reflex); test: Traction reflex test, myorelaxant action; type: in vivo, mice; conditions: for Therapeutic index (myorelaxation ED50 / MES ED50): ED50 myorelaxation divided by ED50 MES
Description: as §1, §2, §3

NMDA receptors = target: T1, NMDA receptors (Rattus norvegicus, UniProt P35439); test: Patch clamp, NMDA-induced currents in hippocampal neurones; type: cell-based
T1 construct: Patch clamp recordings were made from these neurones; endogenous in cells; host or cells: primary cultured hippocampal neurones from rat embryos (E20 to E21)

[6] = NMR female mice, i.p. 30 min before convulsions
[7] = Table 1, mean, N=6, read-out: NMDA IC50
[8] = read-out: [^3H]MK-801 Ki, rat cortex membranes, [3H]-(+)-MK-801 5 nM, glycine 10 μM, glutamate 10 μM, mean

| Compound | ED50 at 30 min [1] [mg/kg] | ED50 [2, 6] [mg/kg] | Ki [3] [µM] | ED50 at 30 min [4] [mg/kg] | ED50 [2] [mg/kg] | Therapeutic index (ataxia ED50 / MES ED50) (ataxia (rotarod)) | Therapeutic index (myorelaxation ED50 / MES ED50) [5] | IC50 (NMDA receptors; [7]) [µM] | IC50 (NMDA receptors) [µM] | Ki [3, 8] [µM] | Ataxia ED50 (ataxia (rotarod); NMR female mice, i.p., accelerating rotarod) | MES ED50 [2, 6] | Myorelaxation ED50 ([5]; NMR female mice, i.p., traction reflex) |
| --- | --- | --- | --- | --- | --- | --- | --- | --- | --- | --- | --- | --- | --- |
| CC1=CC(C)(C)CC(C)(C)C1N.Cl (stereo not shown) [MRZ 2/657, 1-amino-2,4,4,6,6-pentamethyl-cyclohex-2-en Hydrochloride] | > 30 | > 30 | 13.4 | > 30 | – | – | – | – | – | – | – | – | – |
| CC(C)(N)C=C1CC(C)(C)CC(C)(C)C1 [MRZ 2019, 2-Methyl-1-(3,3,5,5-tetramethylcyclohexylidene)-2-propanamine] | > 50 | – | 73.1 | > 50 | > 50 | – | – | – | – | – | – | – | – |
| CC(CN)=C1CC(C)(C)CC(C)(C)C1 [MRZ 2020, 2-(3,3,5,5-Tetramethylcyclohexylidene)propanamine] | 27.6 | 26.1 | 7.45 | 34.5 | – | 1.1 | 1.3 | – | – | – | – | – | – |
| C=C[C@@]1(C)C[C@H](C)C[C@@](C)(N)C1 (relative stereo) [MRZ 2009, cis-3-Vinyl-1,3,trans-5-trimethylcyclohexylamine] | > 50 | > 50 | 22.3 | > 50 | – | – | – | 58.2 | – | – | – | – | – |
| C=CC1(CCN)CC(C)(C)CC(C)(C)C1 [MRZ 2014, 2-(1-Vinyl-3,3,5,5-tetramethylcyclohexyl-1)ethylamine] | 25.8 | 47.8 | 3.12 | 13.9 | – | 0.5 | 0.3 | 0.1 | – | – | – | – | – |
| CC1=CC(C)(N)CC(C)(C)C1 (stereo not shown) [MRZ 2002, 1,3,5,5-Tetramethyl-2-cyclohexen-1-amine] | 53 | – | 5.7 | 34 | 26.1 | 2.0 | 1.3 | – | – | – | – | – | – |
| C=CCNC1(C)CC(C)(C)CC(C)(C)C1 [MRZ 2026, N-Allyl-1,3,3,5,5-pentamethylcyclohexanamine] | 37.6 | 25.4 | – | 26.7 | – | 1.5 | 1.1 | 29.6 | – | – | – | – | – |
| C=CC1(NC)CC(C)(C)CC(C)(C)C1 [MRZ 2021, N-Methyl-1-ethenyl-3,3,5,5-tetramethylcyclohexylamine] | 24.7 | – | 6.54 | 21.4 | 13.6 | 1.8 | 1.6 | – | 12.7 | – | – | – | – |
| CC(N)C1=CC(C)(C)CC(C)(C)C1 (stereo not shown) [MRZ 2/749, 1-(1-Aminoethyl)-3,3,5,5-tetramethylcyclohex-1-ene] | 37.1 | 26.6 | 10.8 | 38.6 | – | 1.4 | 1.5 | – | – | – | – | – | – |
| C=CCC1(N2CCCCC2)CC(C)(C)CC(C)(C)C1 [MRZ 2013, 1-(1-Allyl-3,3,5,5-tetramethylcyclohexyl)piperidine] | > 50 | – | 49.2 | > 50 | > 50 | – | – | – | – | – | – | – | – |
| C=CCC(CN)C1(C)CC(C)(C)CC(C)(C)C1 (stereo not shown) [MRZ 2017, 2-(1,3,3,5,5-Pentamethylcyclohexyl)-4-pentenylamine] | 33.7 | 36.9 | 6.79 | 35.6 | – | 0.9 | 1.0 | 1.19 | – | – | – | – | – |
| CC1(C)CC(=CCCN)CC(C)(C)C1 [MRZ 2018, 3-(3,3,5,5-Tetramethylcyclohexylidene)propanamine] | 26.7 | 78.5 | 20.2 | 29.4 | – | 0.3 | 0.4 | 37.1 | – | – | – | – | – |
| CCC1(CC)CC(=CC(C)N)CC(C)(C)C1 (stereo not shown) [MRZ 2008, 1-(3,3-Diethyl-5,5-dimethylcyclohexylidene)-2-propanamine] | – | – | 8.07 | – | – | – | – | 2.74 | – | – | – | – | – |
| C=CCC1(N)CC(C)(C)CC(C)(C)C1 [MRZ 2005, 1-Allyl-3,3,5,5-tetramethylcyclohexanamine] | 49.3 | 37.3 | 9.35 | 39.8 | – | 1.3 | 1.1 | 12.6 | – | – | – | – | – |
| CC(C)=CCC1(N2CCCCC2)CC(C)(C)CC(C)(C)C1 [MRZ 2015, 1-[3,3,5,5-Tetramethyl-1-(3-methyl-2-butenyl)cyclohexyl]piperidine] | > 50 | – | 83 | > 50 | > 50 | – | – | – | – | – | – | – | – |
| CC1(C)CC(=CCN)CC(C)(C)C1 [MRZ 2/1021, 2-(3,3,5,5-Tetramethylcyclohexylidene)ethanamine] | 23.1 | 29.5 | 2.15 | 16.5 | – | 0.8 | 0.6 | 0.33 | – | – | – | – | – |
| Neramexane Sulphate [MRZ 2000, reference compound] | – | – | – | – | – | – | – | – | – | 1.68 | – | – | – |
| C#CCC1(N2CCCCC2)CC(C)(C)CC(C)(C)C1 [MRZ 2016, 1-[3,3,5,5-Tetramethyl-1-(2-propynyl)cyclohexyl]piperidine] | > 50 | – | 42.2 | > 50 | > 50 | – | – | 71.2 | – | – | – | – | – |
| CC(C)(N)CC1=CC(C)(C)CC(C)(C)C1 [MRZ 2010, 2-Methyl-1-(3,3,5,5-tetramethyl-1-cyclohexen-1-yl)-2-propanamine] | > 50 | – | 44.9 | > 50 | > 50 | – | – | – | – | – | – | – | – |
| CC1(C)C=C(N)CC(C)(C)C1 [MRZ 2/1005, 1-Amino-3,3,5,5-Tetramethyl-1-cyclohexene] | 26.8 | 20.5 | 13.6 | 35.7 | – | 1.3 | 1.7 | – | – | – | – | – | – |
| CC1=CC(N)CC(C)(C)C1 (stereo not shown) [MRZ 2/1023, 1-Amino-3,3,5-trimethyl-2-cyclohexene] | – | – | – | – | – | – | – | – | – | 49.6 | >50 | >50 | >50 |
| CC(N)C=C1CC(C)(C)CC(C)(C)C1 (stereo not shown) [MRZ 2006, 1-(3,3,5,5-Tetramethylcyclohexylidene)-2-propanamine] | 40.9 | 57 | 10.1 | 44.6 | – | 0.7 | 0.8 | – | – | – | – | – | – |

Reference: US6828462B2, “Unsaturated 1-amino-alkylcyclohexane NMDA, 5HT3, and neuronal nicotinic receptor antagonists” (Merz Pharma GmbH & Co. KGAA, priority 2001, dated 2004)
